Values of other authors, collected in patent US20080057002A1, “Non-aqueous compositions containing urea and allantoin and methods for preparing same” (priority 2006, published 2008).

Conditions: expressed in g/100 g solvent @25 degree. C.

solubility of allantoin in ethanol (ethanol): < 0.1%
solubility of allantoin in propylene glycol (propylene glycol): < 0.1%
solubility of allantoin in water (water): 0.45%
Structure (SMILES): NC(=O)NC1NC(=O)NC1=O (stereo not drawn) [allantoin, (2,5-dioxo-4-imidazolidinyl) urea]
